Marks after values point to notes of the source that are not given here.
What was measured:
EphrinB2-EphB1 = biological target: T1, EphrinB2-EphB1 (Homo sapiens, UniProt P54762); test: Octet 80 sec association/500 sec dissociation, immobilized human EphrinB2-Fc binding to soluble human EphB1-His; settings: immobilized human EphrinB2, 25 nM soluble human EphB1; for EphB1 Inhibition Percent, Inhibition of Association ONLY: at 3.2 μM and 80 seconds; for EphB1 Inhibition Percent, Inhibition of Association-Dissociation: at 3.2 μM and 580 seconds
T1 construct: soluble human EphB1-His, EphB2-His, and EphB4-His ectodomains; commercially available human EphrinB1-Fc (EB1), EphrinB2-Fc (EB2), and EphrinB3-Fc (EB3) ectodomain proteins; purchased
T1 sequence (P54762 18-540 limits assumed): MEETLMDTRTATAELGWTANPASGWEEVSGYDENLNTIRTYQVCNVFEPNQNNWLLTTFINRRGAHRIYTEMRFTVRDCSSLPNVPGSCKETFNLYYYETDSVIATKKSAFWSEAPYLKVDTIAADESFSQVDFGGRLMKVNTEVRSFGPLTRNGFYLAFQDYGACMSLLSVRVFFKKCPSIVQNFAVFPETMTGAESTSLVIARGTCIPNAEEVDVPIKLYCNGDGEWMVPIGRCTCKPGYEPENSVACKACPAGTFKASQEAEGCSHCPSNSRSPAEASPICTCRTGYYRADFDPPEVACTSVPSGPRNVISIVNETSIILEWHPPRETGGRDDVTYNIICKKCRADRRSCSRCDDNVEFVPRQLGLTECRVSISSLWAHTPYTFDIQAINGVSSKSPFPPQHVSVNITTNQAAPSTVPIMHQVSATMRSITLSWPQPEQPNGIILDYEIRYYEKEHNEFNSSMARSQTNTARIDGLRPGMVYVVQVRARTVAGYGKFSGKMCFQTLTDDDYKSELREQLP
In short: (§1)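 EphrinB2-Fc captured on AHC biosensors, then soluble His-tagged EphB ectodomain (25 nM for % inhibition runs) associated 80 s and dissociated 500 s in PBS, 0.05% Tween-20, 1% DMSO ± compound. Compounds tested at 0.1–3.2 μM with a 10 μM max standard; IC50 from AUC of full traces or at 75 s and 135 s.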

EphrinB2-EphB2 [1] = biological target: T2, EphrinB2-EphB2 (Homo sapiens, UniProt P29323); test: Octet tetramerization inhibition, immobilized human EphrinB2 binding to 50 nM soluble human EphB2; settings: for IC50: EphrinB2-EphB2
T2 construct: soluble human EphB1-His, EphB2-His, and EphB4-His ectodomains; commercially available human EphrinB1-Fc (EB1), EphrinB2-Fc (EB2), and EphrinB3-Fc (EB3) ectodomain proteins; purchased
T2 sequence (P29323 19-543 limits assumed): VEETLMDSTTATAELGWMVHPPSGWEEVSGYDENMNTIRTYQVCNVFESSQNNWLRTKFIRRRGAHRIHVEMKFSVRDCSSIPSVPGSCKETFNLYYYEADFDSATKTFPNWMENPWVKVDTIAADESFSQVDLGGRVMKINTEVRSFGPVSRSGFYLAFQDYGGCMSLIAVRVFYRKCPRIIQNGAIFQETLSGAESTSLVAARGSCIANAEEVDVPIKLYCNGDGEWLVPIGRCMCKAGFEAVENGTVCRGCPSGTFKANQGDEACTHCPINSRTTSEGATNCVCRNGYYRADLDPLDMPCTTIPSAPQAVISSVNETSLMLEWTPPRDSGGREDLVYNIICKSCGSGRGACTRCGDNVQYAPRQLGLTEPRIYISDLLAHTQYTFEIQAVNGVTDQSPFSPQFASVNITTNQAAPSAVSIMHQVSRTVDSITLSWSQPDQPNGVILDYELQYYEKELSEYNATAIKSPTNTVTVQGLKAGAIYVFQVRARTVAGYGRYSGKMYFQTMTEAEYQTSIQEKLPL

EphrinB2-EphB2 [2] = biological target: T2, EphrinB2-EphB2; test: Octet 80 sec association/500 sec dissociation, immobilized human EphrinB2-Fc binding to soluble human EphB2-His; settings: immobilized human EphrinB2, 25 nM soluble human EphB2; for EphB2 Inhibition Percent, Inhibition of Association ONLY: at 3.2 μM and 80 seconds; for EphB2 Inhibition Percent, Inhibition of Association-Dissociation: at 3.2 μM and 580 seconds
In short: as §1

EphrinB2-EphB4 = biological target: T3, EphrinB2-EphB4 (Homo sapiens, UniProt P54760); test: Octet 80 sec association/500 sec dissociation, immobilized human EphrinB2-Fc binding to soluble human EphB4-His; settings: immobilized human EphrinB2, 25 nM soluble human EphB4; for EphB4 Inhibition Percent, Inhibition of Association ONLY: at 3.2 μM and 80 seconds; for EphB4 Inhibition Percent, Inhibition of Association-Dissociation: at 3.2 μM and 580 seconds
T3 construct: soluble human EphB1-His, EphB2-His, and EphB4-His ectodomains; commercially available human EphrinB1-Fc (EB1), EphrinB2-Fc (EB2), and EphrinB3-Fc (EB3) ectodomain proteins; purchased
T3 sequence (P54760 16-539 limits assumed): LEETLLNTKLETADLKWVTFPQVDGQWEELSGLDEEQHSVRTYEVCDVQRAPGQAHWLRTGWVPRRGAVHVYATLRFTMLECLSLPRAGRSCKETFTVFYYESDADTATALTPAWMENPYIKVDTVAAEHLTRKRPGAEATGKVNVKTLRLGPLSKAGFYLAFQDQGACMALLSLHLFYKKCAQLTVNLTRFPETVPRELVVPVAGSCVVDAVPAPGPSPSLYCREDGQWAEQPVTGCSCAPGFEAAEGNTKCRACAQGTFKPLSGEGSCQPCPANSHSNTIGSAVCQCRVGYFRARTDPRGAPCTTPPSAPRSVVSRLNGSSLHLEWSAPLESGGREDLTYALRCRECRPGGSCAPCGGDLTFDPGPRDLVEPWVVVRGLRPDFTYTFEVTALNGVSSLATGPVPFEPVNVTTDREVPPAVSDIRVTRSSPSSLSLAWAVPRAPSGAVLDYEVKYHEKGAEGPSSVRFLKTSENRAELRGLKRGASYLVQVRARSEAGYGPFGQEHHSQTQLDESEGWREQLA
In short: as §1

EphB1-EphrinB2 (EB2) = biological target: T4, EphB1-EphrinB2 (EB2) (Rattus norvegicus, UniProt P09759); test: Alpha assay EphB1-EphrinB2 (EB2) interaction; format: binding, mouse EB2
T4 construct: rat EphB1-Fc residues 18-538; mouse EB2-His residues 18-232; purchased R&D Systems (EphB1-Fc); Sino Biologicals (EB2-His)
T4 sequence (P09759 18-538): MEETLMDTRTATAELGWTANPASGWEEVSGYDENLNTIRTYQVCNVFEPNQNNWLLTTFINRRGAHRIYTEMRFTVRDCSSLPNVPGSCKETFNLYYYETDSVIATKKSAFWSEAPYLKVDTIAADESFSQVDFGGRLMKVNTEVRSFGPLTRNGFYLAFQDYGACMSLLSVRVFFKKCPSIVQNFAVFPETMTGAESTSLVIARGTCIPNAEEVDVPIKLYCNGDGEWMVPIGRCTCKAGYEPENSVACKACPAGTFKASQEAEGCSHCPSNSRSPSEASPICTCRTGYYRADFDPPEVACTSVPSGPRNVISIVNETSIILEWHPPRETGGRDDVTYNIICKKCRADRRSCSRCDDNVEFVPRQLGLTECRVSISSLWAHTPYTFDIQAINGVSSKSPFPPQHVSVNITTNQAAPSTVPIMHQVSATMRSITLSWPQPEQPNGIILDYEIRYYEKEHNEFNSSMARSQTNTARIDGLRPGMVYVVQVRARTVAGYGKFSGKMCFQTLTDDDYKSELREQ
From the text: A chemiluminescent AlphaScreen™ bead-based proximity assay suitable for HTS was developed to measure the receptor-ligand interaction formed between EphB1 and EphrinB2 (EB2) ectodomains (FIG. 3). Here, when singlet oxygen molecules generated by high energy irradiation of donor beads travel over a constrained distance to excite acceptor beads, a chemiluminescent signal is generated and detected. If an analyte interferes with the EphB1-EB2 protein-protein interaction, close proximity of the donor and acceptor beads will be disrupted resulting in diminished or lost energy transfer and reduced acceptor bead emission.
Test was conducted in the Alpha assay, to see if purified soluble Reelin (previously shown to bind EphB1 ectodomain) can interfere with EphB1-EB2 binding.
The EphB1-EB2 screen was conducted using 0.8 nM of each protein, 50 ng beads per well, and assessed at 5 μM a library of −240,000 small, drug-like chemicals. […] They were also tested in a counter screen designed to identify non-specific compounds. Here, a single-protein Alpha assay was set up using a dual-tagged EphB2-His-Fc ectodomain protein that can bind both donor and acceptor beads to bring them into proximity. If a selected compound simply absorbs the chemiluminescent signal or interferes with bead function/binding or protein folding, it was hypothesized that it would also reduce signals in the single protein assay, and would consider it a false positive.

[3] = Absolute Association IC50 (300 sec), Table A
[4] = Absolute Dissociation IC50 (450 sec), Table A
[5] = Relative AUC/IC50, Table A, compound 7: association only
[6] = Relative Association IC50 (300 sec), Table A
[7] = Relative Dissociation IC50 (450 sec), Table A

Compound	EphB1 Inhibition Percent, Inhibition of Association ONLY (EphrinB2-EphB1) [%]	EphB1 Inhibition Percent, Inhibition of Association-Dissociation (EphrinB2-EphB1) [%]	IC50 (EphrinB2-EphB2 [1]; Absolute AUC/IC50, Table A) [nM]	IC50 (EphrinB2-EphB2 [1]; [3]) [nM]	IC50 (EphrinB2-EphB2 [1]; [4]) [nM]	IC50 (EphrinB2-EphB2 [1]; [5]) [nM]	IC50 (EphrinB2-EphB2 [1]; [6]) [nM]	IC50 (EphrinB2-EphB2 [1]; [7]) [nM]	EphB2 Inhibition Percent, Inhibition of Association ONLY (EphrinB2-EphB2 [2])	EphB2 Inhibition Percent, Inhibition of Association-Dissociation (EphrinB2-EphB2 [2])	EphB4 Inhibition Percent, Inhibition of Association ONLY (EphrinB2-EphB4)	EphB4 Inhibition Percent, Inhibition of Association-Dissociation (EphrinB2-EphB4)	antagonism of EphB1-EB2 (EphB1-EphrinB2 (EB2))	tetramerization inhibitor activity (EphrinB2-EphB2 [1])	disruption of unsurmountable tetramer (EphrinB2-EphB2 [1]; 0.8-3.2 μM)
Cc1ccc2c(CN3CCN(c4ccc(Br)cc4)CC3)ccc(O)c2n1 [Compound 61, 5-((4-(4-bromophenyl)piperazin-1-ium-1-yl)methyl)-8-hydroxy-2-methylquinolin-1-ium chloride]	8.1	11.3	> 1600	> 1600	> 1600	> 1600	> 1600	> 1600	0*%	0*%	0*%	0*%			
COc1ccc2[nH]cc(C(=O)N3CCN(c4ccc(Br)cc4)CC3)c2c1 [Compound 65, (4-(4-bromophenyl)piperazin-1-yl)(5-methoxy-1H-indol-3-yl)methanone]	22.2	28.6	> 1600	> 1600	> 1600	> 1600	> 1600	> 1600	5.6%	46.4%	20.2%	19.0%			
CC1CCN(Cc2cc(Br)c(O)c3ncccc23)CC1 [Compound 66, 7-bromo-5-((4-methylpiperidin-1-yl)methyl)quinolin-8-ol, reference compound]													did not pass through the Alpha confirmation and counter screens		
COc1ccc(N2CCN(Cc3ccc(O)c4ncccc34)CC2)cc1 [Compound 72, 5-((4-(4-methoxyphenyl)piperazin-1-yl)methyl)quinolin-8-ol]	30.0	44.5	2290	2510	1510		1200	1070	39.4%	60.2%	19.8%	33.2%		exhibit strong IC50 values	ability to disrupt some of the unsurmountable tetramer
COc1ccc(N2CCN(Cc3cc(I)c(O)c4ncccc34)CC2)cc1 [Compound 74, 7-iodo-5-((4-(4-methoxyphenyl)piperazin-1-yl)methyl)quinolin-8-ol]	47.2	58.2	400	560	420				50.6%	70.0%	21.0%	43.4%		exhibit strong IC50 values	
Oc1ccc(CN2CCN(c3ccc(C(F)(F)F)cc3)CC2)c2cccnc12 [Compound 103, 5-((4-(4-(trifluoromethyl)phenyl)piperazin-1-yl)methyl)quinolin-8-ol]	16.3	33.8							10.5%	27.6%	0*%	11.4%		eliminated the activity	
Reelin: purified soluble Reelin (previously shown to bind EphB1 ectodomain)													almost complete inhibition at 200 nM		
